These results are taken from patent publication US20240245805A1 (Orna Therapeutics, Inc., priority 2020, published 2024).

Data set [1] deals with 1C1C7 cells. Put plainly: 5′ UTR variants, GLuc in 1C1C7 cells. As to conditions: CK IRES with 5′ UTR variants. The format is cell-based. An excerpt:
This example describes modifications of circular RNAs by inserting 5′ UTR variants. […] 1C1C7 cells were transfected with the circular RNAs.

For data set [2], the system named is 1C1C7 cells. Put plainly: GLuc luminescence and functional stability by IRES, 1C1C7 cells.

For the molecule “UTR2: 5′ UTR variant: canonical Kozak sequence with "a 36-nucleotide unstructured/low GC spacer sequence" added (UTR2) (DNA AATAAGAGAGAAAAGAAGAGTAAGAAGAAATATAAGAGCCACC; 5' UTR segment within a circular RNA construct, further chemistry not given here)”, in the data set with 1C1C7 cells [1], the translation entry is “more effective”.

B1: Salivirus A SZ-1 (nucleic acid)
DNA: TCTGTCCTCACCCCATCTTCCCTTCTTTCCTGCACCGTTACGCTTACTCGCATGTGCATTGAGTGGTGCACGTGCTTGAACAAACAGCTACACTCACATGGGGGCGGGTTTTCCCGCCCTGCGGCCTCTCGCGAGGCCCACCCCTCCCCTTCCTCCCATAACTACAGTGCTTTGGTAGGTAAGCATCCTGATCCCCCGCGGAAGCTGCTCACGTGGCAACTGTGGGGACCCAGACAGGTTATCAAAGGCACCCGGTCTTTCCGCCTTCAGGAGTATCCCTGCTAGTGAATTCTAGTAGGGCTCTGCTTGGTGCCAACCTCCCCCAAATGCGCGCTGCGGGAGTGCTCTTCCCCAACTCACCCTAGTATCCTCTCATGTGTGTGCTTGGTCAGCATATCTGAGACGATGTTCCGCTGTCCCAGACCAGTCCAGTAATGGACGGGCCAGTGTGCGTAGTCGTCTTCCGGCTTGTCCGGCGCATGTTTGGTGAACCGGTGGGGTAAGGTTGGTGTGCCCAACGCCCGTACTTTGGTGATACCTCAAGACCACCCAGGAATGCCAGGGAGGTACCCCGCTTCACAGCGGGATCTGACCCTGGGCTAATTGTCTACGGTGGTTCTTCTTGCTTCCACTTCTTTCTACTGTTCATG
modifications: source: /note="Description of Unknown: Salivirus A sequence"
For B1, the “luminescence at 24 hours” value in the data set on 1C1C7 cells [2] is on record as “produced high luminescence”.
